The values below come from ChEMBL document CHEMBL1909046, “DrugMatrix in vitro pharmacology data”.

As a reminder, the IC50 is the midpoint of a concentration-inhibition curve. As a reminder, the Ki is the equilibrium dissociation constant of an inhibitor or competing ligand from its target.

SMILES strings stand for the structures.

One assay addresses T1, B2 bradykinin receptor (Homo sapiens, UniProt P30411).
T1 sequence (P30411 whole entry): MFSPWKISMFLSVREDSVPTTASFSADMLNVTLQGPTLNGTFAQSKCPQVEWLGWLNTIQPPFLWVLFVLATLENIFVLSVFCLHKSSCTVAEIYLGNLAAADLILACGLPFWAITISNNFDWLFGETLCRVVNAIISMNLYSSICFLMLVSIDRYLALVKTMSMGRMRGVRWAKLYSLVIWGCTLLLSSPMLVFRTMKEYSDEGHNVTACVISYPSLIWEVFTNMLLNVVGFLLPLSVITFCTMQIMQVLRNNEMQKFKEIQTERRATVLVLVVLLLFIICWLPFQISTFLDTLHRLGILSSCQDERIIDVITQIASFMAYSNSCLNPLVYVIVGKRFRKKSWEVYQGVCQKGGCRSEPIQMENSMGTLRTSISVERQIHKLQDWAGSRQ
In kind it is cell membranes, Membrane. The settings on record: chem-1.

In assay [1] the target is T2, Angiotensin-converting enzyme (Oryctolagus cuniculus, UniProt P12822).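 Note: enzymatic inhibition of angiotensin-converting enzyme measured with FAPGG as the substrate; in other assays of this panel Not Active means under 50% inhibition at 10 µM.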
T2 sequence (P12822 whole entry): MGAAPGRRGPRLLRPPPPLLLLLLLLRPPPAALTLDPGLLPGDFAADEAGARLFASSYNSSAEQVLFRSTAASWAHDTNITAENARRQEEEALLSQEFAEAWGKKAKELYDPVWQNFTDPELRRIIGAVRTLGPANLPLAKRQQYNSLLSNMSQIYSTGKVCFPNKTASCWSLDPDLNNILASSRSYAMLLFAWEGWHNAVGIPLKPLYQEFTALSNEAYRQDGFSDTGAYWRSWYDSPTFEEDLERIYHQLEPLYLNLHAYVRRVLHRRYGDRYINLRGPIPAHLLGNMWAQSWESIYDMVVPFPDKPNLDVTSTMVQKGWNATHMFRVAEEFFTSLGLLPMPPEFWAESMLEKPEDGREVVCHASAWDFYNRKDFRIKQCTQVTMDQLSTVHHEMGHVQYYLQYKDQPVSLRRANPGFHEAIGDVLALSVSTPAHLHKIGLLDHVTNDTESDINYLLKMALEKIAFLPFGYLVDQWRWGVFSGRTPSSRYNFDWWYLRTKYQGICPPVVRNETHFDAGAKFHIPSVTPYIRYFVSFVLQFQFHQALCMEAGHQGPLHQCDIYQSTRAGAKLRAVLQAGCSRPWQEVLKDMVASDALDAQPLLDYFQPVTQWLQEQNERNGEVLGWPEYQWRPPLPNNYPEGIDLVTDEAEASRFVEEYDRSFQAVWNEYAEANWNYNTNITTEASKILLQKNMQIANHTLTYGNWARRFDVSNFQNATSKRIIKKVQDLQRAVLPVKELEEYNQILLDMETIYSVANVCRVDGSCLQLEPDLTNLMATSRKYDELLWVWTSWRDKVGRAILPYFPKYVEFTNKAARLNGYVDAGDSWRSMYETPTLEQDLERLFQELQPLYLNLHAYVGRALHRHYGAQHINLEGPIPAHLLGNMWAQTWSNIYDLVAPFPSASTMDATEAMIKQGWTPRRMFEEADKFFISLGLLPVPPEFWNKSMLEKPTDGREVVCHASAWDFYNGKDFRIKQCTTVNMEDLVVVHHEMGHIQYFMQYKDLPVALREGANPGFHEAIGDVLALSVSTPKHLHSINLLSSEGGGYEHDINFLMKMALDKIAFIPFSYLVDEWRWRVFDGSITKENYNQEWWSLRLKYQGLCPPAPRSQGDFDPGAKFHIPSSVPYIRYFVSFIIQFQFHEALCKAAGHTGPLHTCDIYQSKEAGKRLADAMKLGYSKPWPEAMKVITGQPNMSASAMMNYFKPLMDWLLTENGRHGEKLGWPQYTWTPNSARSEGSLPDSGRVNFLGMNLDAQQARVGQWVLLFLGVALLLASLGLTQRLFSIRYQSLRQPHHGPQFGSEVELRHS
Type of assay: tissue-based, Lung.

The target in assay [2] is T3, 3-hydroxy-3-methylglutaryl-coenzyme A reductase (Homo sapiens, UniProt P04035).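 Note: enzyme inhibition assay of HMG-CoA reductase using radiolabeled [14C]HMG-CoA as substrate; in other assays of this panel Not Active means under 50% inhibition at 10 µM.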
T3 sequence (P04035 whole entry): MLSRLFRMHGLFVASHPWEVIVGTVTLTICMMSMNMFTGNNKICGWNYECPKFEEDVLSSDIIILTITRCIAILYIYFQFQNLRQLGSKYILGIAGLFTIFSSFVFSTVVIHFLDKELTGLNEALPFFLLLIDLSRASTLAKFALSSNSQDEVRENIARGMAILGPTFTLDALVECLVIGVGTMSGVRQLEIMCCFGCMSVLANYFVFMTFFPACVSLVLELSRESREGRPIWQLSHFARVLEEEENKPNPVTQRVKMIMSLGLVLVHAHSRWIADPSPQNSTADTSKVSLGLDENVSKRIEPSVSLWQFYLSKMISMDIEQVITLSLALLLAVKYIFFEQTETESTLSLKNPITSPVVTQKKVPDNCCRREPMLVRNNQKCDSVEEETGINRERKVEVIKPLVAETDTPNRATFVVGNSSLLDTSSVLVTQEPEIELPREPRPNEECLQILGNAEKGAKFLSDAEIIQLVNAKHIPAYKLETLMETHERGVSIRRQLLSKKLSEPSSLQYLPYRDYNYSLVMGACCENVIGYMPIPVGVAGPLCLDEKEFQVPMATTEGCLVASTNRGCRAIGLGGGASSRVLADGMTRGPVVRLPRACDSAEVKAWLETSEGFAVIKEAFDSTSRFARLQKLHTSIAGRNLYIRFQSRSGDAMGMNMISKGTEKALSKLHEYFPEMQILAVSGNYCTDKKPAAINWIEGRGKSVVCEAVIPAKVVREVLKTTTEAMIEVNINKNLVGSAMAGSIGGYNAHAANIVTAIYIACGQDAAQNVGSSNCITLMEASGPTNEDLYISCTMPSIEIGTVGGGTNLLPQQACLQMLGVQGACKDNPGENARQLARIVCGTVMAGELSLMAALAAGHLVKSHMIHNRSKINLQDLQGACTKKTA
Set-up: species or system Escherichia coli.

For the next assay, the target named is Insulin receptor (Rattus norvegicus, UniProt P15127). In kind it is cell membranes, Wistar, Liver, Membrane. Note: in other assays of this panel Not Active means under 50% inhibition at 10 µM.
Chain of Insulin receptor (P15127 27-759 limits assumed): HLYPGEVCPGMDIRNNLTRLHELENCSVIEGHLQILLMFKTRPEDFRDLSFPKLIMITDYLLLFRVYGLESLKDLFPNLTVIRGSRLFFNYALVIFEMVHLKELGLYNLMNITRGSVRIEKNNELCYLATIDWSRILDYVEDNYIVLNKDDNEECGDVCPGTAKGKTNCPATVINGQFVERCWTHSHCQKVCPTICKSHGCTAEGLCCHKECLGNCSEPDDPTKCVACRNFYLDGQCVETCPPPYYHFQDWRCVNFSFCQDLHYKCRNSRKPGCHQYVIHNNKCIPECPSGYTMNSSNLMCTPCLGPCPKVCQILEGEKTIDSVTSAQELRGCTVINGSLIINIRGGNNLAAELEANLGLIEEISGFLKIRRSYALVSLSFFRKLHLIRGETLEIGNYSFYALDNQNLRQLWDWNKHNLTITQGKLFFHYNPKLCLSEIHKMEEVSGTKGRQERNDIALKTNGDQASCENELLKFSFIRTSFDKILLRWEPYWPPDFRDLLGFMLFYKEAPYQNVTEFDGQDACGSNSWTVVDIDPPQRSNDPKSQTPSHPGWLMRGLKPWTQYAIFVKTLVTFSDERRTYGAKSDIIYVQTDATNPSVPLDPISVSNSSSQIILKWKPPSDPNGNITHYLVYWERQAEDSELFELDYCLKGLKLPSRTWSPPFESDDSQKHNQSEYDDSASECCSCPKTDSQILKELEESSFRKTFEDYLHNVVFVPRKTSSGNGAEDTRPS
Chain of Insulin receptor (P15127 764-1383 limits assumed): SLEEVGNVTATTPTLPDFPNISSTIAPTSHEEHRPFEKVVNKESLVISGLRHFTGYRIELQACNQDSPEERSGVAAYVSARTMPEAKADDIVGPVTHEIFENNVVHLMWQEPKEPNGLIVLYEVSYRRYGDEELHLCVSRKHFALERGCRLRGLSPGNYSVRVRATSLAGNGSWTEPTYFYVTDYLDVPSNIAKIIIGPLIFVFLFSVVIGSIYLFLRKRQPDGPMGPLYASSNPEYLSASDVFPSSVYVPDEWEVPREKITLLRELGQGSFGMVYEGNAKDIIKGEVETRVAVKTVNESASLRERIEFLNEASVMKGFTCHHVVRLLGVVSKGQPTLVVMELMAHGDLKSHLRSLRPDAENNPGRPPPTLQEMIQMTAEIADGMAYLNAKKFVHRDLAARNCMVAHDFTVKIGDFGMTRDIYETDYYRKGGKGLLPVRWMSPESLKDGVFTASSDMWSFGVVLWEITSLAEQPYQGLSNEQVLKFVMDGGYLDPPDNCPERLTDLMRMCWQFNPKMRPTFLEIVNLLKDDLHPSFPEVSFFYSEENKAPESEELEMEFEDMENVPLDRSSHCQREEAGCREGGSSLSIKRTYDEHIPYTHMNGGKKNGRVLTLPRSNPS
The target in assay [3] is Sodium-dependent noradrenaline transporter (Homo sapiens, UniProt P23975). In words: DRUGMATRIX: Norepinephrine Transporter radioligand binding (ligand: [125I] RTI-55). In kind it is cell membranes, MDCK, Membrane. The following applies: Not Active = under 50% inhibition at 10 µM.
Chain of Sodium-dependent noradrenaline transporter (P23975 whole entry): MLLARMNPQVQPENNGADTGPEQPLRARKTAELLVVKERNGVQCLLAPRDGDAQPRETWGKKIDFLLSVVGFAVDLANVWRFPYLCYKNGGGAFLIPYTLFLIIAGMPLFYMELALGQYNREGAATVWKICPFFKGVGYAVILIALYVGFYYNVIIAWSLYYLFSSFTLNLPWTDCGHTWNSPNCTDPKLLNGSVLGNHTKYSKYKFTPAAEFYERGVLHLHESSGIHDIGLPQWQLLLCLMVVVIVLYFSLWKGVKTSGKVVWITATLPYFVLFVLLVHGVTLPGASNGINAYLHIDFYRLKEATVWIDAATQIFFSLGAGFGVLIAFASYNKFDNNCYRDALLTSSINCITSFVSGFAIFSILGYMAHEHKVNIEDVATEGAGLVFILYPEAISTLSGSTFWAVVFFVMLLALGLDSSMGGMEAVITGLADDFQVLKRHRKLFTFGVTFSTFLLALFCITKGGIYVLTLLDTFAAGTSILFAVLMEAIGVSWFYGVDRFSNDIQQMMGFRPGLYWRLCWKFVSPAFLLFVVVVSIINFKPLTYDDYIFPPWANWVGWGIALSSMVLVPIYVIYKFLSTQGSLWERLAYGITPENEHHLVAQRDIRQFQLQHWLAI
A further assay has as its target Adenosine receptor A2a (Homo sapiens, UniProt P29274). In words: DRUGMATRIX: Adenosine A2A radioligand binding (ligand: […]). In kind it is cell membranes, HEK293, Membrane. The following applies: hek293; Not Active = under 50% inhibition at 10 µM.

Chain of Adenosine receptor A2a (P29274 whole entry): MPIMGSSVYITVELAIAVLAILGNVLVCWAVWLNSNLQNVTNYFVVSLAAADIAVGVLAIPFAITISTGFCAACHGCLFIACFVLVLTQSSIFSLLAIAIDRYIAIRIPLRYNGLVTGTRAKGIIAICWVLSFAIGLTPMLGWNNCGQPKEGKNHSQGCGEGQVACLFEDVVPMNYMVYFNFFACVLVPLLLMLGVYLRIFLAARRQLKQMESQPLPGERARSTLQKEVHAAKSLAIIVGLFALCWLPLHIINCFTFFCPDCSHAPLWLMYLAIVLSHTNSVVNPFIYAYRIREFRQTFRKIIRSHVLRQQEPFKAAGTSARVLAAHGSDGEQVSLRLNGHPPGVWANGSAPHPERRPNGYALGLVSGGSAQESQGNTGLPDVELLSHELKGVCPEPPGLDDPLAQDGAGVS

With `CCC[C@@H]1C[C@@H](C(=O)N[C@@H]([C@H]2O[C@H](SC)[C@H](O)[C@@H](O)[C@H]2O)[C@H](C)Cl)N(C)C1` [CLINDAMYCIN], the IC50 entry (against B2 bradykinin receptor; in assay [1]; in assay [2]; on Insulin receptor; in assay [3] (mdck); on Adenosine receptor A2a) was “Not Active” in each case.
On to `O=C(O)c1cc(=O)c2c(OCC(O)COc3cccc4oc(C(=O)O)cc(=O)c34)cccc2o1` [CROMOLYN], for which the IC50 result (on B2 bradykinin receptor; in assay [1]; in assay [2]; against Insulin receptor; in assay [3] (mdck); on Adenosine receptor A2a) was “Not Active” throughout.
On to `O=P1(N(CCCl)CCCl)NCCCO1` (stereo not drawn) [CYCLOPHOSPHAMIDE ANHYDROUS], for which the IC50 result (on B2 bradykinin receptor; in assay [1]; in assay [2]; on Insulin receptor; in assay [3] (mdck); on Adenosine receptor A2a) was “Not Active” in each case.
As to `CC(=O)O[C@]1(C(C)=O)CC[C@H]2[C@@H]3C=C(Cl)C4=CC(=O)[C@@H]5C[C@@H]5[C@]4(C)[C@H]3CC[C@@]21C` [CYPROTERONE ACETATE], the IC50 entry (on B2 bradykinin receptor; in assay [1]; in assay [2]; on Insulin receptor; in assay [3] (mdck); on Adenosine receptor A2a) was “Not Active” throughout.
Turning to `Nc1nc(N)nc(NC2CC2)n1` [CYROMAZINE], the IC50 result (on B2 bradykinin receptor; in assay [1]; in assay [2]; against Insulin receptor; in assay [3] (mdck); on Adenosine receptor A2a) was “Not Active” throughout.
For `CCN[C@@H](C)Cc1cccc(C(F)(F)F)c1` [DEXFENFLURAMINE], the IC50 entry (against B2 bradykinin receptor; in assay [1]; in assay [2]; on Insulin receptor; in assay [3] (mdck); at Adenosine receptor A2a) was “Not Active” throughout.
Regarding `C[C@H](C(=O)O)c1cccc(C(=O)c2ccccc2)c1` [DEXKETOPROFEN], the IC50 result (against B2 bradykinin receptor; in assay [1]; in assay [2]; against Insulin receptor; in assay [3] (mdck); at Adenosine receptor A2a) was “Not Active” throughout.
Consider `CN1C(=O)CN=C(c2ccccc2)c2cc(Cl)ccc21` [DIAZEPAM], for which the IC50 result (on B2 bradykinin receptor; in assay [1]; in assay [2]; against Insulin receptor; in assay [3] (mdck); on Adenosine receptor A2a) was “Not Active” in each case.
With `CN1C[C@H](C(=O)N[C@]2(C)O[C@@]3(O)[C@@H]4CCCN4C(=O)[C@H](Cc4ccccc4)N3C2=O)C[C@@H]2c3cccc4[nH]cc(c34)C[C@H]21` [DIHYDROERGOTAMINE], the IC50 result (against B2 bradykinin receptor; in assay [1]; in assay [2]; against Insulin receptor; in assay [3] (mdck); at Adenosine receptor A2a) was “Not Active” in each case.
Turning to `Cc1c(N(C)CS(=O)(=O)[O-])c(=O)n(-c2ccccc2)n1C.[Na+]` [DIPYRONE SODIUM], the IC50 entry (on B2 bradykinin receptor; in assay [1]; in assay [2]; against Insulin receptor; in assay [3] (mdck); on Adenosine receptor A2a) was “Not Active” throughout.
With `CC(CCc1ccc(O)cc1)NCCc1ccc(O)c(O)c1` (stereo not drawn) [DOBUTAMINE], the IC50 entry is “Not Active” on B2 bradykinin receptor; “Not Active” in assay [1]; “Not Active” in assay [2]; “Not Active” on Insulin receptor; 383 nM in assay [3] (read-out: IC50); “Not Active” on Adenosine receptor A2a. Also, the Ki in assay [3] (read-out: Ki) worked out at 380 nM.
Turning to `CCn1cc(C(=O)O)c(=O)c2cc(F)c(N3CCNCC3)nc21` [ENOXACIN], the IC50 entry (on B2 bradykinin receptor; in assay [1]; in assay [2]; on Insulin receptor; in assay [3] (mdck); on Adenosine receptor A2a) was “Not Active” throughout.
Turning to `CCC(=O)O[C@H]1[C@H](O[C@@H]2[C@@H](C)[C@H](O[C@H]3C[C@@](C)(OC)[C@@H](O)[C@H](C)O3)[C@@H](C)C(=O)O[C@H](CC)[C@@](C)(O)[C@H](O)[C@@H](C)C(=O)[C@H](C)C[C@@]2(C)O)O[C@H](C)C[C@@H]1N(C)C` [ERYTHROMYCIN PROPIONATE], the 50% inhibitory concentration (IC50) result (against B2 bradykinin receptor; in assay [1]; in assay [2]; against Insulin receptor; in assay [3] (mdck); at Adenosine receptor A2a) was “Not Active” throughout.
For the molecule `C=C(CC)C(=O)c1ccc(OCC(=O)O)c(Cl)c1Cl` [ETHACRYNIC ACID], the IC50 result (on B2 bradykinin receptor; in assay [1]; in assay [2]; against Insulin receptor; in assay [3] (mdck); on Adenosine receptor A2a) was “Not Active” in each case.
As for `OCCO` [ETHYLENE GLYCOL], the IC50 result (on B2 bradykinin receptor; in assay [1]; in assay [2]; against Insulin receptor; in assay [3] (mdck); at Adenosine receptor A2a) was “Not Active” throughout.
Take `CC(=O)OCC(CCn1cnc2cnc(N)nc21)COC(C)=O` [FAMCICLOVIR]: the IC50 entry (at B2 bradykinin receptor; in assay [1]; in assay [2]; against Insulin receptor; in assay [3] (mdck); on Adenosine receptor A2a) was “Not Active” each time.
`O=C(O)Cc1ccc(-c2ccccc2)cc1` [FELBINAC]: the IC50 entry (against B2 bradykinin receptor; in assay [1]; in assay [2]; against Insulin receptor; in assay [3] (mdck); on Adenosine receptor A2a) was “Not Active” each time.
